In ChEMBL document CHEMBL4229455, “Synthesis and anticancer activity of novel bisindolylhydroxymaleimide derivatives with potent GSK-3 kinase inhibition” (Bioorg Med Chem, 2018) one finds growth, IC50 and Activity data, which are given here for five compounds.

A value given as a limit tells only on which side of the number the result lay.

One test has as its system TK-10. In words: Cytotoxicity against human TK10 cells assessed as cell growth at 10 uM after 48 hrs by SRB assay relative to control. The format is functional. The note with it: TK-10, 48 h, read-out: Activity. (In general: In SRB staining, fixed cells bind dye roughly in proportion to their protein.)
The next test deals with KM12. The test can be described thus: Cytotoxicity against human KM12 cells assessed as cell growth at 10 uM after 48 hrs by SRB assay relative to control. The test is classed as functional. As to conditions: KM12, 48 h, read-out: Activity.
In test [1] the target is Receptor-interacting serine/threonine-protein kinase 3 (Homo sapiens, UniProt Q9Y572). The test can be described thus: Inhibition of recombinant full length human RIPK3 expressed in baculovirus infected Sf9 insect cells using MBP as substrate in presence of [gamma-33P]ATP.
Chain of Receptor-interacting serine/threonine-protein kinase 3 (Q9Y572 whole entry): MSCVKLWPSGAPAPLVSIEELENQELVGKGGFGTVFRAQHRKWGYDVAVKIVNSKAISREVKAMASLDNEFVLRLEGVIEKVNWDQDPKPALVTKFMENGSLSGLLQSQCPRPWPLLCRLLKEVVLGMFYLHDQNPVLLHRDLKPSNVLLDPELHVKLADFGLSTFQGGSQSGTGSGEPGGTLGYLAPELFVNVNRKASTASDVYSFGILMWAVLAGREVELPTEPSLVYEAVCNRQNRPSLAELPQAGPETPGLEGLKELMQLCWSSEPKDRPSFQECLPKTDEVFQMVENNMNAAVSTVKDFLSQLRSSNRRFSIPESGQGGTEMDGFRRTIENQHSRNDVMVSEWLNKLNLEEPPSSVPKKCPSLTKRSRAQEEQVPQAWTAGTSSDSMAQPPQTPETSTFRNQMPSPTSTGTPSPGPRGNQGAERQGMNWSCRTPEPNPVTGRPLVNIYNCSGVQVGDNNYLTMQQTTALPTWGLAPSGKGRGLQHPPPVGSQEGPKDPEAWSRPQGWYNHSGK
In a further test the test system is SN12C. The test can be described thus: Cytotoxicity against human SN12C cells assessed as cell growth at 10 uM after 48 hrs by SRB assay relative to control. The note with it: read-out: Activity. The test is classed as functional.
The test system of a further test is SK-MEL-5. The test can be described thus: Cytotoxicity against human SK-MEL-5 cells assessed as cell growth at 10 uM after 48 hrs by SRB assay relative to control. The note with it: SK-MEL-5, 48 h, read-out: Activity. The format is functional.
Another test addresses CDK2/Cyclin A2 (Homo sapiens, UniProt P24941). In words: Inhibition of full length human CDK2/cyclin A using histone H1 as substrate in presence of [gamma-33P]ATP. The test is classed as protein-complex assay.
A further test concerns MOLT-4. The test can be described thus: Cytotoxicity against human MOLT4 cells assessed as cell growth at 10 uM after 48 hrs by SRB assay relative to control. The note with it: MOLT-4, 48 h, read-out: Activity. The test is classed as functional.
Another test concerns SW-620. In words: Cytotoxicity against human SW620 cells assessed as cell growth at 10 uM after 48 hrs by SRB assay relative to control. The format is functional. As to conditions: SW-620, 48 h, read-out: Activity.
The next test concerns HCT-15. In words: Cytotoxicity against human HCT15 cells assessed as cell growth at 10 uM after 48 hrs by SRB assay relative to control. The test is classed as functional. As to conditions: HCT-15, 48 h, read-out: Activity.
The next test has as its system T47D. The test can be described thus: Cytotoxicity against human T47D cells assessed as cell growth at 10 uM after 48 hrs by SRB assay relative to control. The format is functional. The note with it: read-out: Activity.
The target in test [2] is Cyclin-dependent kinase 5/CDK5 activator 1 (Homo sapiens) (UniProt Q00535+Q15078). In words: Inhibition of recombinant full length human CDK5/p25 expressed in bacteria assessed as residual activity at 10 uM using histone H1 as substrate in presence of [gamma-33P]ATP.
Chain of Cyclin-dependent kinase 5/CDK5 activator 1 (Homo sapiens) (Q00535 whole entry): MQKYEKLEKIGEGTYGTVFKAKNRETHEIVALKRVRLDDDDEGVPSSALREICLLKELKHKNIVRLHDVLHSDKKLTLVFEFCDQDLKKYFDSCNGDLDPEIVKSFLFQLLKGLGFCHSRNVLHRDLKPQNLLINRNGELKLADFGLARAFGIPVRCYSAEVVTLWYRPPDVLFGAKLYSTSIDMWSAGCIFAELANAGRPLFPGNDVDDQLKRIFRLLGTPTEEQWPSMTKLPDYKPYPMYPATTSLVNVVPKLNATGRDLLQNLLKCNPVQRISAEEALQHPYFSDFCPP
Chain of Cyclin-dependent kinase 5/CDK5 activator 1 (Homo sapiens) (Q15078 99-307 partner limits assumed): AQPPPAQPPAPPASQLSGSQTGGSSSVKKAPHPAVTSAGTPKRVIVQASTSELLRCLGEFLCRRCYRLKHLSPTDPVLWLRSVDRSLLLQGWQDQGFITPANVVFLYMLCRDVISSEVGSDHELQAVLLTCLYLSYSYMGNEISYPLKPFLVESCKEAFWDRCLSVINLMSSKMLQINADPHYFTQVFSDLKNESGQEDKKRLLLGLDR
The subject of a further test is OVCAR-4. The test can be described thus: Cytotoxicity against human OVCAR4 cells assessed as cell growth at 10 uM after 48 hrs by SRB assay relative to control. The test is classed as functional. The note with it: OVCAR-4, 48 h, read-out: Activity.
In another test the test system is Hs-578T. The test can be described thus: Cytotoxicity against human Hs 578T cells assessed as cell growth at 10 uM after 48 hrs by SRB assay relative to control. The test is classed as functional. The note with it: read-out: Activity.
In another test the test system is OVCAR-3. In words: Cytotoxicity against human OVCAR3 cells assessed as cell growth at 10 uM after 48 hrs by SRB assay relative to control. The format is functional. The note with it: OVCAR-3, 48 h, read-out: Activity.
A further test relates to RXF 393. The test can be described thus: Cytotoxicity against human RXF393 cells assessed as cell growth at 10 uM after 48 hrs by SRB assay relative to control. The test is classed as functional. As to conditions: RXF 393, 48 h, read-out: Activity.
In a further test the test system is HCC 2998. In words: Cytotoxicity against human HCC2998 cells assessed as cell growth at 10 uM after 48 hrs by SRB assay relative to control. The test is classed as functional. The note with it: HCC 2998, 48 h, read-out: Activity.
The test system of the next test is LOX IMVI. The test can be described thus: Cytotoxicity against human LOXIMVI cells assessed as cell growth at 10 uM after 48 hrs by SRB assay relative to control. As to conditions: read-out: Activity. The format is functional.
Another test concerns RPMI-8226. In words: Cytotoxicity against human RPMI8226 cells assessed as cell growth at 10 uM after 48 hrs by SRB assay relative to control. The format is functional. As to conditions: RPMI-8226, 48 h, read-out: Activity.
The subject of another test is PC-3. The test can be described thus: Cytotoxicity against human PC3 cells assessed as cell growth at 10 uM after 48 hrs by SRB assay relative to control. The test is classed as functional. As to conditions: PC-3, 48 h, read-out: Activity.
For test [3], the target named is T1, Serine/threonine-protein kinase haspin (Homo sapiens, UniProt Q8TF76).
T1 sequence (Q8TF76 whole entry): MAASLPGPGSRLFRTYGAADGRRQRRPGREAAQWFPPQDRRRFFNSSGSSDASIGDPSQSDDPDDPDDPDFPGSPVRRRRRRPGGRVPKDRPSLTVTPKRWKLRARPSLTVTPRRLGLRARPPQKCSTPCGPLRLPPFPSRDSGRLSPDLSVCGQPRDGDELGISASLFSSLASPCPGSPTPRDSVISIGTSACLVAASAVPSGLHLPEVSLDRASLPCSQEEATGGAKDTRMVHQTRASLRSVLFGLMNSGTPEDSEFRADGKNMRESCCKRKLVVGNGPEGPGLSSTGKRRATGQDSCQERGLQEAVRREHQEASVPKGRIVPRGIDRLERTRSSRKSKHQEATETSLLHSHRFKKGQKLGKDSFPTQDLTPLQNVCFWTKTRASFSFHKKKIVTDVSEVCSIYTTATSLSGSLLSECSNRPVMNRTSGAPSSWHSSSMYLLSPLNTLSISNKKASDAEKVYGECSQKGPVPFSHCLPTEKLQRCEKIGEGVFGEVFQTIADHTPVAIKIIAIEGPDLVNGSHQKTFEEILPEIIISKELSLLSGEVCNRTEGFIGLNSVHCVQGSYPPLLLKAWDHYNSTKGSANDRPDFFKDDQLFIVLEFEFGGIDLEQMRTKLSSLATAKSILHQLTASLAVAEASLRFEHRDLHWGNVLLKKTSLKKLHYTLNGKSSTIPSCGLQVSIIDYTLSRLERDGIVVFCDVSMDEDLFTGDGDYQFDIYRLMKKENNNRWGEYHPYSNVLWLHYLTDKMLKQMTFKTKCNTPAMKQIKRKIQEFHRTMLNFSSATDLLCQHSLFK
The test can be described thus: Inhibition of recombinant human haspin kinase domain expressed in bacteria using histone H3 (1 to 21 residues) peptide as substrate in presence of [gamma-33P]ATP.

The next test deals with SK-MEL-28. In words: Cytotoxicity against human SK-MEL-28 cells assessed as cell growth at 10 uM after 48 hrs by SRB assay relative to control. The test is classed as functional. As to conditions: SK-MEL-28, 48 h, read-out: Activity.
Another test has as its system A498. In words: Cytotoxicity against human A498 cells assessed as cell growth at 10 uM after 48 hrs by SRB assay relative to control. The format is functional. The note with it: A498, 48 h, read-out: Activity.
The next test has as its target Aurora kinase B (Homo sapiens, UniProt Q96GD4). The test can be described thus: Inhibition of recombinant full length human aurora B expressed in baculovirus infected Sf9 insect cells assessed as residual activity at 10 uM using MBP as substrate in presence of [gamma-33P]ATP.
The test system of the next test is UACC-257. In words: Cytotoxicity against human UACC257 cells assessed as cell growth at 10 uM after 48 hrs by SRB assay relative to control. The test is classed as functional. As to conditions: UACC-257, 48 h, read-out: Activity.

Chain of Aurora kinase B (Q96GD4 whole entry): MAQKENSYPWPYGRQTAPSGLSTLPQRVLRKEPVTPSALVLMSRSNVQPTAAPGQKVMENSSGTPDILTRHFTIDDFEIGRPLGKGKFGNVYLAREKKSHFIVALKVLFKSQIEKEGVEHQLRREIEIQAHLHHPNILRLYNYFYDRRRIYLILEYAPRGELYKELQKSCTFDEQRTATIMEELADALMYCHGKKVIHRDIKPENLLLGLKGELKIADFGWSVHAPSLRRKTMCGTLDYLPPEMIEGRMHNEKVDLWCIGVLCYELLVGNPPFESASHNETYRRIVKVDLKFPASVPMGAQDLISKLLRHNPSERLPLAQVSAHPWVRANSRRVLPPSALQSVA

As a reminder, the IC50 is the concentration that inhibits the measured activity by half. As for `Cn1cc(C2=C(c3c[nH]c4ccccc34)C(=O)N(O)C2=O)c2ccccc21`, the growth at 10 µM in the test on TK-10 is 120%; with KM12 it was 81.7%; with SN12C, 97.8%; in the test on SK-MEL-5 it was 72%; with MOLT-4, 79%; with SW-620, 87.7%. Also, the growth at 10 µM stood at 74.8% in the test on HCT-15; 60.9% with T47D; 103% in the test with OVCAR-4; 96.3% with Hs-578T; 84.7% with OVCAR-3; 86.3% with RXF 393. In addition, the growth at 10 µM is 89.9% with HCC 2998; 51% in the test on LOX IMVI; 51.7% with RPMI-8226; 78.7% with PC-3; 92% with SK-MEL-28; 79.1% in the test on A498. Besides, the IC50 (in test [1]; on CDK2/Cyclin A2; in test [3]) was > 10 µM in each case. Besides, the Activity in test [2] came out at 66%; at Aurora kinase B, 79%.

Turning to `CC(C)n1cc(C2=C(c3c[nH]c4ccccc34)C(=O)N(O)C2=O)c2ccccc21`, the growth at 10 µM in the test on TK-10 stood at 84.5%; in the test on KM12 it was 88.3%; with SN12C, 101%; with SK-MEL-5 it was 98.5%; in the test on MOLT-4, 77%; with SW-620 it was 106%. Also, the growth at 10 µM was found to be 99.9% with HCT-15; 86.7% in the test on T47D; 111% in the test with OVCAR-4; 111% with Hs-578T; 92.7% with OVCAR-3; 100% in the test on RXF 393. Besides, the growth at 10 µM with HCC 2998 turned out to be 105%; in the test on LOX IMVI, 58.8%; in the test on RPMI-8226, 56.9%; with PC-3 it was 99.7%; with SK-MEL-28, 116%; with A498, 93.5%. Also, the IC50 (in test [1]; at CDK2/Cyclin A2; in test [3]) was > 10 µM each time. The Activity was 71% in test [2] and 147% at Aurora kinase B.

In the case of `CC(C)n1cc(C2=C(c3cn(C)c4ccccc34)C(=O)N(O)C2=O)c2ccccc21`, the growth at 10 µM worked out at 127% in the test on TK-10; 87.4% in the test on KM12; 95.2% with SN12C; 76.2% with SK-MEL-5; 82.4% in the test with MOLT-4; 101% in the test with SW-620. Further, the growth at 10 µM in the test on HCT-15 was 96.9%; with T47D, 87.3%; in the test with OVCAR-4 it was 99.6%; with Hs-578T it was 91.2%; in the test on OVCAR-3, 87.6%; with RXF 393, 89.2%. Besides, the growth at 10 µM in the test on HCC 2998 came out at 110%; in the test on LOX IMVI it was 61.5%; in the test with RPMI-8226, 68.3%; in the test with PC-3, 88.4%; in the test on SK-MEL-28, 112%; in the test with A498, 99%. The IC50 is > 10 µM in test [1], 7 µM at CDK2/Cyclin A2 and > 10 µM in test [3]. Besides, the values for the Activity (in [2]; at Aurora kinase B) were 34% and 95%, respectively.

In the case of `Cn1cc(C2=C(c3cn(CCCCCC#N)c4ccccc34)C(=O)N(O)C2=O)c2ccccc21`, the growth at 10 µM with TK-10 was found to be 116%; in the test with KM12, 88.2%; with SN12C it was 102%; in the test on SK-MEL-5, 78.8%; in the test on MOLT-4, 95.7%; in the test on SW-620, 101%. In addition, the growth at 10 µM in the test on UACC-257 was found to be 110%; in the test on HCT-15 it was 91.2%; in the test on T47D, 78.5%; in the test with OVCAR-4, 116%; in the test with Hs-578T, 93.5%; in the test with OVCAR-3, 93.6%. Moreover, the growth at 10 µM in the test on RXF 393 was 90%; in the test on HCC 2998 it was 111%; in the test with LOX IMVI it was 60.2%; in the test with RPMI-8226, 71.2%; with PC-3 it was 80.5%; in the test on SK-MEL-28, 109%. Moreover, in the test with A498, the growth at 10 µM worked out at 76.7%. Also, the IC50 (in test [1]; at CDK2/Cyclin A2; in test [3]) was > 10 µM throughout. Moreover, the Activity was 49% in test [2] and 71% on Aurora kinase B.

For `O=C(O)CCCCCn1cc(C2=C(c3c[nH]c4ccccc34)C(=O)N(O)C2=O)c2ccccc21`, the growth at 10 µM worked out at 99% with TK-10; 95.6% in the test with KM12; 105% with SN12C; 93.9% in the test on SK-MEL-5; 99.7% in the test on MOLT-4; 95.3% in the test with SW-620. The growth at 10 µM in the test on UACC-257 was 111%; with HCT-15, 97.3%; in the test with T47D it was 96.2%; in the test on OVCAR-4, 113%; with Hs-578T, 103%; with OVCAR-3, 99.3%. For the same compound, the growth at 10 µM came to 101% with RXF 393; 119% in the test with HCC 2998; 80.4% in the test on LOX IMVI; 101% in the test with RPMI-8226; 84.9% in the test with PC-3; 111% in the test with SK-MEL-28. The growth at 10 µM in the test on A498 is 88.5%. Besides, the IC50 (in [1]; at CDK2/Cyclin A2; in test [3]) was > 10 µM in each case. Besides, the Activity worked out at 60% in [2] and 63% at Aurora kinase B.
